Data taken from ChEMBL document CHEMBL3639125, “1,4-oxazepines as BACE1 and/or BACE2 inhibitors” (2014).

Tests used:
[1] = target: Beta-secretase 1 (Homo sapiens, UniProt P56817); assay: Immunofluorescence Resonance Energy Transfer (FRET) Assay: The FRET assay was performed essentially as described in Gruninger-Leitch et al., Journal of Biological Chemistry (2002) 277(7) 4687-93 (Substrate and inhibitor profile of BACE (beta-secretase) and comparison with other mammalian aspartic proteases). In summary, a peptide is designed that is cleaved by the protease. The peptide is labelled with dabcyl at the N terminus and Lucifer Yellow at the C-terminus, such that for an intact peptide the Lucifer Yellow fluorescence is quenched by the dabcyl. When the peptide is cut by BACE2, the quenching is removed and a fluorescent signal is generated. The assay was performed as described in Grueninger et al. 2002 at pH 4.5 using a substrate concentration of 5 μM. A FRET peptide based on the TMEM27 sequence was devised. dabcyl-QTLEFLKIPS-LucY (SEQ ID NO: 1). […] Conversely, BACE1 had insignificant activity against this peptide.
[2] = target: T1, Beta-secretase 2 (Homo sapiens, UniProt Q9Y5Z0); assay: In summary, a peptide is designed that is cleaved by the protease. The peptide is labelled with dabcyl at the N terminus and Lucifer Yellow at the C-terminus, such that for an intact peptide the Lucifer Yellow fluorescence is quenched by the dabcyl. When the peptide is cut by BACE2, the quenching is removed and a fluorescent signal is generated.
T1 sequence (Q9Y5Z0 whole entry): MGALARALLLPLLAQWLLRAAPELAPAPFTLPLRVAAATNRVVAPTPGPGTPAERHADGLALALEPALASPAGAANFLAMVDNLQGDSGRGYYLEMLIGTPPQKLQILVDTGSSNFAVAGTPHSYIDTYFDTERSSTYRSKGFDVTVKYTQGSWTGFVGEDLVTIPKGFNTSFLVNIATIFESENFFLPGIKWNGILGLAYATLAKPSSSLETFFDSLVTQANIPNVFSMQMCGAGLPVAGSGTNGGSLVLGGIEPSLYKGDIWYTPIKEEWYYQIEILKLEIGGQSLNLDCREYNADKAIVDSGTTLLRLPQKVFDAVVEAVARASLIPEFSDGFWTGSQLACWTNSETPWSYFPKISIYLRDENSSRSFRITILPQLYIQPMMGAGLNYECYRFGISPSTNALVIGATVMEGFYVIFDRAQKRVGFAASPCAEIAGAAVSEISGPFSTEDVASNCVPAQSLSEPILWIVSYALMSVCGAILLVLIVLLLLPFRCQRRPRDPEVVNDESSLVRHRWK

Chain of Beta-secretase 1 (P56817 whole entry): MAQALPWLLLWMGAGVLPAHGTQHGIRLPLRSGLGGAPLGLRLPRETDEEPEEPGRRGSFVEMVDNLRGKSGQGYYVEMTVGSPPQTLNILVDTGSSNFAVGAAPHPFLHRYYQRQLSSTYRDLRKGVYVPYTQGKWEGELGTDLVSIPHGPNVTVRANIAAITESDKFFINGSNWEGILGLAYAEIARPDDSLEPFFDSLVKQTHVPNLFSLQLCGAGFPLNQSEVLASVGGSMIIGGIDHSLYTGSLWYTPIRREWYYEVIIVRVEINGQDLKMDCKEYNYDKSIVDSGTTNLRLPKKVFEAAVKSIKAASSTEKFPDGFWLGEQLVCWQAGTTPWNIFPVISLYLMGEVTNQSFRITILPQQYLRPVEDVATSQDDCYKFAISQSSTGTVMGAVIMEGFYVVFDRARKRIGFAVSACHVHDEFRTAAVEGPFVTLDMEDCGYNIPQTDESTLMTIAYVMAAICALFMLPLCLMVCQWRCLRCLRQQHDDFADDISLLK

IC50 [2]: 3890 nM
Compound: CC1(C)OCC(N)=N[C@](C)(c2cc(Nc3cncc(C(F)(F)F)c3)ccc2F)C1(F)F
IC50 [1]: 1900 nM
